Experimental findings from patent publication US10030047B2 (Hoffmann-La Roche Inc., priority 2015, dated 2018) are described below.

pIC50: −log10 of the molar value.

One assay deals with A. baumannii strain ATCC17978. As to the kind of experiment: 50% growth inhibitory concentration (IC50) determination, Iso-Sensitest broth. Type of assay: cell-based. To be noted: Acinetobacter baumannii, ATCC17978, 16 h, read-out: IC50 ATCC17978. The protocol:
The in vitro antimicrobial activity of the compounds was alternatively determined according to the following procedure:
The assay used a 10-points Iso-Sensitest broth medium to measure quantitatively the in vitro activity of the compounds against A. baumannii ATCC 17978.
Stock compounds in DMSO were serially twofold diluted (e.g. range from 50 to 0.097 μM final concentration) in 384 wells microtiter plates and inoculated with 49 μl the bacterial suspension in Iso-Sensitest medium to have a final cell concentration of ˜5×10^(5) CFU/ml in a final volume/well of 50 ul/well. Microtiter plates were incubated at 35±2° C.
Bacterial cell growth was determined with the measurement of optical density at λ=600 nm each 20 minutes over a time course of 16 h.
Growth inhibition was calculated during the logarithmic growth of the bacterial cells with determination of the concentration inhibiting 50% (IC50) and 90% (IC90) of the growth.
Tables 3, 4 and 5 provide the 50% growth inhibitory concentrations (IC50) in micromoles per liter of the compounds of present invention obtained against the A. baumannii strain ATCC17978.
Take `CN1C(=O)[C@H](CCCCN)NC(=O)[C@H](CCCN)NCc2cccnc2Sc2c(Cl)ccc(-c3ccc(C(=O)O)cc3)c2CNC(=O)[C@@H]1Cc1c[nH]c2ccccc12` [Example 239, 4-[(11S,14S,17S)-14-(4-Amino-butyl)-11-(3-amino-propyl)-25-chloro-17-(1H-indol-3-ylmethyl)-16-methyl-12,15,18-trioxo-2-thia-4,10,13,16,19-pentaaza-tricyclo[19.4.0.0*3,8*]pentacosa-1 (25),3(8),4,6,21,23-hexaen-22-yl]-benzoic acid]: the pIC50 is more than 6.00.

The assay is the same for the next values; noted with them: Acinetobacter baumannii; A. baumannii ATCC17978; Iso-Sensitest medium; OD 600 nm over 16 h; read-out: IC50 ATCC17978.
`CN1C(=O)[C@H](CCCCN)NC(=O)[C@H](CCCN)NCc2ccc(Br)cc2Sc2c(Cl)cccc2CNC(=O)[C@@H]1Cc1c[nH]c2ccccc12` [Example 219, (12S,15S,18S)-15-(4-Amino-butyl)-18-(3-amino-propyl)-24-bromo-4-chloro-12-(1H-indol-3-ylmethyl)-13-methyl-2-thia-10,13,16,19-tetraaza-tricyclo[19.4.0.0*3,8*]pentacosa-1(25),3,5,7,21,23-hexaene-11,14,17-trione]: the pIC50 is 6.22.

With `CN1C(=O)[C@H](CCCCN)NC(=O)[C@H](CCCN)NCc2ccc(-c3ccccc3)cc2Sc2c(Cl)cccc2CNC(=O)[C@@H]1Cc1c[nH]c2ccccc12` [Example 220, (12S,15S,18S)-15-(4-Amino-butyl)-18-(3-amino-propyl)-4-chloro-12-(1H-indol-3-ylmethyl)-13-methyl-24-phenyl-2-thia-10,13,16,19-tetraaza-tricyclo[19.4.0.0*3,8*]pentacosa-1(25),3,5,7,21,23-hexaene-11,14,17-trione], the pIC50 was 5.24.

Regarding `CN1C(=O)[C@H](CCCCN)NC(=O)[C@H](CCCN)NCc2cc(Br)cnc2Sc2ccccc2CNC(=O)[C@@H]1Cc1c[nH]c2ccccc12` [Example 236, (7S,10S,13S)-13-((1H-Indol-3-yl)methyl)-10-(4-aminobutyl)-7-(3-aminopropyl)-3-bromo-12-methyl-6,7,9,10,12,13,15,16-octahydrobenzo[b]pyrido[3,2-p][1,5,8,11,14]thiatetraazacycloheptadecine-8,11,14(5H)-trione], the pIC50 was 5.49.

For `CN(C)c1nccc2c1CNC(=O)[C@H](Cc1c[nH]c3ccccc13)N(C)C(=O)[C@H](CCCCN)NC(=O)[C@H](CCCN)NCc1cccnc1S2` [Example 237, (7S,10S,13S)-13-((1H-Indol-3-yl)methyl)-10-(4-aminobutyl)-7-(3-aminopropyl)-17-(dimethylamino)-12-methyl-6,7,9,10,12,13,15,16-octahydrodipyrido [2,3-b:3′,4′-p][1,5,8,11,14]thiatetraazacycloheptadecine-8,11,14(5H)-trione], the pIC50 was 6.10.

Take `CN1C(=O)[C@H](CCCCN)NC(=O)[C@H](CCCN)NCc2cccnc2Sc2ccnc(-c3cccnc3)c2CNC(=O)[C@@H]1Cc1c[nH]c2ccccc12` [Example 238, (7S,10S,13S)-13-((1H-Indol-3-yl)methyl)-10-(4-aminobutyl)-7-(3-aminopropyl)-12-methyl-17-(pyridin-3-yl)-6,7,9,10,12,13,15,16-octahydrodipyrido[2,3-b:3′,4′-p][1,5,8,11,14]thiatetraazacycloheptadecine-8,11,14(5H)-trione]: the pIC50 was 5.25.

Take `CN1C(=O)[C@H](CCCCN)NC(=O)[C@H](CCCN)NCc2cccnc2Sc2c(Cl)ccc(-c3ccc(OCC(O)CO)cc3)c2CNC(=O)[C@@H]1Cc1c[nH]c2ccccc12` (stereo partly drawn) [Example 240, (11S,14S,17S)-14-(4-Amino-butyl)-11-(3-amino-propyl)-25-chloro-22-[4-(2,3-dihydroxy-propoxy)-phenyl]-17-(1H-indol-3-ylmethyl)-16-methyl-2-thia-4,10,13,16,19-pentaaza-tricyclo[19.4.0.0*3,8*]pentacosa-1(25),3(8),4,6,21,23-hexaene-12,15,18-trione]: the pIC50 is more than 7.00.

With `CN1C(=O)[C@H](CCCCN)NC(=O)[C@H](CCCN)NCc2cccnc2Sc2c(Cl)ccc(-c3ccc(OCC(=O)O)cc3)c2CNC(=O)[C@@H]1Cc1c[nH]c2ccccc12` [Example 241, {4-[(11S,14S,17S)-14-(4-Amino-butyl)-11-(3-amino-propyl)-25-chloro-17-(1H-indol-3-ylmethyl)-16-methyl-12,15,18-trioxo-2-thia-4,10,13,16,19-pentaaza-tricyclo[19.4.0.0*3,8*]pentacosa-1(25),3(8),4,6,21,23-hexaen-22-yl]-phenoxy}-acetic acid], the pIC50 was more than 6.70.

Consider `CN1C(=O)[C@H](CCCCN)NC(=O)[C@H](CCCN)NCc2cccnc2Sc2c(Cl)ccc(-c3ccc(OC4CCNCC4)cc3)c2CNC(=O)[C@@H]1Cc1c[nH]c2ccccc12` [Example 242, (11S,14S,17S)-14-(4-Amino-butyl)-11-(3-amino-propyl)-25-chloro-17-(1H-indol-3-ylmethyl)-16-methyl-22-[4-(piperidin-4-yloxy)-phenyl]-2-thia-4,10,13,16,19-pentaaza-tricyclo[19.4.0.0*3,8*]pentacosa-1(25),3(8),4,6,21,23-hexaene-12,15,18-trione], for which the pIC50 is more than 6.70.

In the case of `CN1C(=O)[C@H](CCCCN)NC(=O)[C@H](CCCN)NCc2cccnc2Sc2c(Cl)ccc(-c3ccc(CN)cc3)c2CNC(=O)[C@@H]1Cc1c[nH]c2ccccc12` [Example 243, (11S,14S,17S)-14-(4-Amino-butyl)-22-(4-aminomethyl-phenyl)-11-(3-amino-propyl)-25-chloro-17-(1H-indol-3-ylmethyl)-16-methyl-2-thia-4,10,13,16,19-pentaaza-tricyclo[19.4.0.0*3,8*]pentacosa-1(25),3(8),4,6,21,23-hexaene-12,15,18-trione], the pIC50 is more than 7.00.

For the compound `CN1C(=O)[C@H](CCCCN)NC(=O)[C@H](CCCN)NCc2cccnc2Sc2c(Cl)ccc(-c3cccc(CCN)c3)c2CNC(=O)[C@@H]1Cc1c[nH]c2ccccc12` [Example 244, (11S,14S,17S)-14-(4-Amino-butyl)-22-[3-(2-amino-ethyl)-phenyl]-11-(3-amino-propyl)-25-chloro-17-(1H-indol-3-ylmethyl)-16-methyl-2-thia-4,10,13,16,19-pentaaza-tricyclo[19.4.0.0*3,8*]pentacosa-1(25),3(8),4,6,21,23-hexaene-12,15,18-trione], the pIC50 is more than 6.40.

For `CN1C(=O)[C@H](CCCCN)NC(=O)[C@H](CCCN)NCc2cccnc2Sc2c(Cl)ccc(-c3ccc(N4CCNCC4)cc3)c2CNC(=O)[C@@H]1Cc1c[nH]c2ccccc12` [Example 245, (11S,14S,17S)-14-(4-Amino-butyl)-11-(3-amino-propyl)-25-chloro-17-(1H-indol-3-ylmethyl)-16-methyl-22-(4-piperazin-1-yl-phenyl)-2-thia-4,10,13,16,19-pentaaza-tricyclo[19.4.0.0*3,8*]pentacosa-1(25),3(8),4,6,21,2-hexaene-12,15,18-trione], the pIC50 is more than 7.00.

For `CN1C(=O)[C@H](CCCCN)NC(=O)[C@H](CCCN)NCc2cccnc2Sc2c(Cl)ccc(-c3ccc(S(=O)(=O)NCCO)cc3)c2CNC(=O)[C@@H]1Cc1c[nH]c2ccccc12` [Example 246, 4-[(11S,14S,17S)-14-(4-Amino-butyl)-11-(3-amino-propyl)-25-chloro-17-(1H-indol-3-ylmethyl)-16-methyl-12,15,18-trioxo-2-thia-4,10,13,16,19-pentaaza-tricyclo[19.4.0.0*3,8*]pentacosa-1(25),3(8),4,6,21,23-hexaen-22-yl]-N-(2-hydroxy-ethyl)-benzenesulfonamide], the negative logarithm of the IC50 (pIC50) is more than 7.00.

In the case of `CN1C(=O)[C@H](CCCCN)NC(=O)[C@H](CCCN)NCc2cccnc2Sc2c(Cl)ccc(-c3ccc(C(=O)NCCO)cc3)c2CNC(=O)[C@@H]1Cc1c[nH]c2ccccc12` [Example 247, 4-[(11S,14S,17S)-14-(4-Amino-butyl)-11-(3-amino-propyl)-25-chloro-17-(1H-indol-3-ylmethyl)-16-methyl-12,15,18-trioxo-2-thia-4,10,13,16,19-pentaaza-tricyclo[19.4.0.0*3,8*]pentacosa-1(25),3(8),4,6,21,23-hexaen-22-yl]-N-(2-hydroxy-ethyl)-benzamide], the pIC50 was more than 7.00.

Consider `CN(C)CCNC(=O)c1ccc(-c2ccc(Cl)c3c2CNC(=O)[C@H](Cc2c[nH]c4ccccc24)N(C)C(=O)[C@H](CCCCN)NC(=O)[C@H](CCCN)NCc2cccnc2S3)cc1` [Example 248, 4-[(11S,14S,17S)-14-(4-Amino-butyl)-11-(3-amino-propyl)-25-chloro-17-(1H-indol-3-ylmethyl)-16-methyl-12,15,18-trioxo-2-thia-4,10,13,16,19-pentaaza-tricyclo[19.4.0.0*3,8*]pentacosa-1(25),3(8),4,6,21,23-hexaen-22-yl]-N-(2-dimethylamino-ethyl)-benzamide], for which the pIC50 was more than 7.00.

Take `CN1C(=O)[C@H](CCCCN)NC(=O)[C@H](CCCN)NCc2cccnc2Sc2c(Cl)ccc(-c3ccc(C(=O)NCCN4CCOCC4)cc3)c2CNC(=O)[C@@H]1Cc1c[nH]c2ccccc12` [Example 249, 4-[(11S,14S,17S)-14-(4-Amino-butyl)-11-(3-amino-propyl)-25-chloro-17-(1H-indol-3-ylmethyl)-16-methyl-12,15,18-trioxo-2-thia-4,10,13,16,19-pentaaza-tricyclo[19.4.0.0*3,8*]pentacosa-1(25),3(8),4,6,21,23-hexaen-22-yl]-N-(2-morpholin-4-yl-ethyl)-benzamide]: the pIC50 is more than 7.00.
